The source of these data is US10131664B2 (Celgene Quanticel Research, Inc., priority 2013, dated 2018).

Where two headings read alike, the source gives them in different places.

Assay [1] addresses full-length human LSD1 (Homo sapiens (Human), UniProt O60341). Nature of the assay: In vitro enzyme inhibition assay LSD-1 (TR-FRET). The class given is biochemical. The note with it: TR-FRET, 0.1 nM LSD1, 50 nM H3K4me1-biotin peptide, 2 μM FAD, pH7.3; read-out: LSD1 IC50. The method, then: This assay determines the ability of a test compound to inhibit LSD1 demethylase activity.
The enzymatic assay of LSD1 activity is based on Time Resolved-Fluorescence Resonance Energy Transfer (TR-FRET) detection.
The ability of the compounds disclosed herein to inhibit LSD1 activity was quantified and the respective IC50 value was determined. Table 5 provides the IC50 values of various substituted heterocyclic compounds disclosed herein.

Assay [2] concerns THP-1 (AML) cells. Nature of the assay: LSD1 CD11b cellular assay (flow cytometry). Format: cell-based. Particulars: CD11b expression in THP-1 (AML) cells, flow cytometry, 4 days incubation, read-out: Cellular IC50. The method in brief: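 THP-1 AML cells treated with serially diluted compound (0.2% DMSO final) for 4 days at 37 °C, 5% CO2. CD11b expression measured by flow cytometry with DAPI staining; IC50 derived from percent CD11b-positive cells versus inhibitor concentration.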

Regarding `N#Cc1ccc(-c2nc(N3CCC(N)C(O)C3)ncc2-c2cnn(CC(F)(F)F)c2)cc1F` (stereo not shown) [Example 103, 4-[2-(4-amino-3-hydroxypiperidin-1-yl)-5-[1-(2,2,2-trifluoroethyl)pyrazol-4-yl]pyrimidin-4-yl]-2-fluorobenzonitrile], the IC50 in assay [1] was under 0.1 µM; in assay [2] (Homo sapiens, 96 h), 0.1 to 1 µM.
On to `Cn1ncc2cc(-c3cnc(N4CCC(N)C(O)C4)nc3-c3ccc(C#N)c(F)c3)ccc21` (stereo not shown) [Example 104, 4-[2-(4-amino-3-hydroxypiperidin-1-yl)-5-(1-methylindazol-5-yl)pyrimidin-4-yl]-2-fluorobenzonitrile], for which the IC50 in assay [1] and in assay [2] was under 0.1 µM each time.
`Cn1nnc2cc(-c3cnc(N4CCC(N)CC4)nc3-c3ccc(C#N)c(F)c3)c(F)cc21` [Example 105, 4-[2-(4-aminopiperidin-1-yl)-5-(6-fluoro-1-methylbenzotriazol-5-yl)pyrimidin-4-yl]-2-fluorobenzonitrile]: the IC50 in assay [1] was under 0.1 µM; in assay [2] (Homo sapiens, 96 h) it was under 0.1 µM.
As for `Cn1nccc1C#Cc1cnc(N2CCC(N)CC2)nc1-c1ccc(C#N)c(F)c1` [Example 106, 4-[2-(4-aminopiperidin-1-yl)-5-[2-(2-methylpyrazol-3-yl)ethynyl]pyrimidin-4-yl]-2-fluorobenzonitrile], the IC50 is under 0.1 µM in assay [1] and 0.1 to 1 µM in assay [2] (Homo sapiens, 96 h).
For `Cn1cc2cc(-c3cnc(N4CCC(N)C(O)C4)nc3-c3ccc(C#N)c(F)c3)ccc2n1` (stereo not shown) [Example 107, 4-[2-(4-amino-3-hydroxypiperidin-1-yl)-5-(2-methylindazol-5-yl)pyrimidin-4-yl]-2-fluorobenzonitrile], in that order: under 0.1 µM and under 0.1 µM.
For `Cn1cc2cc(-c3cnc(N4CCCC(N)C4)nc3-c3ccc(C#N)c(F)c3)ccc2n1` (stereo not shown) [Example 108, 4-[2-(3-aminopiperidin-1-yl)-5-(2-methylindazol-5-yl)pyrimidin-4-yl]-2-fluorobenzonitrile], in that order: under 0.1 µM and under 0.1 µM.
In the case of `Cn1cc2cc(-c3cnc(N4CCNCC4)nc3-c3ccc(C#N)c(F)c3)ccc2n1` [Example 109, 2-fluoro-4-[5-(2-methylindazol-5-yl)-2-piperazin-1-ylpyrimidin-4-yl]benzonitrile], the IC50 in assay [1] was under 0.1 µM; in assay [2] (Homo sapiens, 96 h), 0.1 to 1 µM.
On the same counts, the results for `Cn1cc2cc(-c3cnc(N4CCCNCC4)nc3-c3ccc(C#N)c(F)c3)ccc2n1` [Example 110, 4-[2-(1,4-diazepan-1-yl)-5-(2-methylindazol-5-yl)pyrimidin-4-yl]-2-fluorobenzonitrile] are under 0.1 µM and under 0.1 µM.
Regarding `Cn1ncc2cc(-c3cnc(N4CCC(N)C(F)C4)nc3-c3ccc(C#N)c(F)c3)ccc21` (stereo not shown) [Example 111, 4-[2-(4-amino-3-fluoropiperidin-1-yl)-5-(1-methylindazol-5-yl)pyrimidin-4-yl]-2-fluorobenzonitrile], the half-maximal inhibitory concentration (IC50) in assay [1] was under 0.1 µM; in assay [2] (Homo sapiens, 96 h) it was under 0.1 µM.
In the case of `Cn1cc2cc(-c3cnc(N4CCC(N)C(F)C4)nc3-c3ccc(C#N)c(F)c3)ccc2n1` (stereo not shown) [Example 112, 4-[2-(4-amino-3-fluoropiperidin-1-yl)-5-(2-methylindazol-5-yl)pyrimidin-4-yl]-2-fluorobenzonitrile], the concentration for half-maximal inhibition (IC50) was under 0.1 µM in assay [1] and under 0.1 µM in assay [2] (Homo sapiens, 96 h).
As to `Cc1ccc(-c2cnc(N3CCC4(CC3)CNC4)nc2-c2ccc(C#N)cc2)cc1` [Example 113, 4-[2-(2,7-diazaspiro[3.5]nonan-7-yl)-5-(4-methylphenyl)pyrimidin-4-yl]benzonitrile], the IC50 in assay [1] is under 0.1 µM; in assay [2] (Homo sapiens, 96 h), 0.1 to 1 µM.
For `Cc1ccc(-c2cnc(N3CCC4CNCC4CC3)nc2-c2ccc(C#N)cc2)cn1` (stereo not shown) [Example 114, 4-[2-(2,3,3a,4,5,7,8,8a-octahydro-1H-pyrrolo[3,4-d]azepin-6-yl)-5-(6-methylpyridin-3-yl)pyrimidin-4-yl]benzonitrile], in that order: under 0.1 µM and 0.1 to 1 µM.
On the same counts, the results for `Cn1ncc2cc(-c3cnc(N4CCC5CNCC5C4)nc3-c3ccc(C#N)cc3)ccc21` (stereo not shown) [Example 115, 4-[2-(1,2,3,3a,4,6,7,7a-octahydropyrrolo[3,4-c]pyridin-5-yl)-5-(1-methylindazol-5-yl)pyrimidin-4-yl]benzonitrile] are under 0.1 µM and under 0.1 µM.
Consider `Cn1ncc2cc(-c3cnc(N4CCC(N)CC4)nc3-c3ccc(C#N)cc3)ccc21` [Example 116, 4-[2-(4-aminopiperidin-1-yl)-5-(1-methylindazol-5-yl)pyrimidin-4-yl]benzonitrile], for which the IC50 was under 0.1 µM in assay [1] and under 0.1 µM in assay [2] (Homo sapiens, 96 h).
As to `N#Cc1ccc(-c2nc(N3CCC4CNCC4CC3)ncc2-c2ccc3cn[nH]c3c2)cc1` (stereo not shown) [Example 117, 4-[2-(2,3,3a,4,5,7,8,8a-octahydro-1H-pyrrolo[3,4-d]azepin-6-yl)-5-(1H-indazol-6-yl)pyrimidin-4-yl]benzonitrile], the IC50 in assay [1] was under 0.1 µM; in assay [2] (Homo sapiens, 96 h), under 0.1 µM.
For the molecule `Cc1ccc(-c2cnc(N3CC4CNCC(C4)C3)nc2-c2ccc(C#N)cc2)cc1` [Example 119, 4-[2-(3,7-diazabicyclo[3.3.1]nonan-3-yl)-5-(4-methylphenyl)pyrimidin-4-yl]benzonitrile], the half-inhibitory concentration (IC50) in assay [1] is under 0.1 µM; in assay [2] (Homo sapiens, 96 h) it was 0.1 to 1 µM.
On the same counts, the results for `Cn1ncc2cc(-c3cnc(N4CC5CNCC(C5)C4)nc3-c3ccc(C#N)cc3)ccc21` [Example 120, 4-[2-(3,7-diazabicyclo[3.3.1]nonan-3-yl)-5-(1-methylindazol-5-yl)pyrimidin-4-yl]benzonitrile] are under 0.1 µM and 0.1 to 1 µM.
For `Cn1cnc2cc(-c3cnc(N4CCC(N)CC4)nc3-c3ccc(C#N)cc3)ccc21` [Example 122, 4-[2-(4-aminopiperidin-1-yl)-5-(1-methylbenzimidazol-5-yl)pyrimidin-4-yl]benzonitrile], in that order: under 0.1 µM and under 0.1 µM.
As for `COc1ccc(-c2cnc(N3CCC(N)CC3)nc2-c2ccc(C#N)cc2)cn1` [Example 123, 4-[2-(4-aminopiperidin-1-yl)-5-(6-methoxypyridin-3-yl)pyrimidin-4-yl]benzonitrile], the half-inhibitory concentration (IC50) is under 0.1 µM in assay [1] and under 0.1 µM in assay [2] (Homo sapiens, 96 h).
Consider `N#Cc1ccc(-c2nc(N3CCC(N)CC3)ncc2-c2ccc(OCC3CC3)nc2)cc1` [Example 124, 4-[2-(4-aminopiperidin-1-yl)-5-[6-(cyclopropylmethoxy)pyridin-3-yl]pyrimidin-4-yl]benzonitrile], for which the IC50 was under 0.1 µM in assay [1] and under 0.1 µM in assay [2] (Homo sapiens, 96 h).
For the molecule `Cn1cnc2cc(-c3cnc(N4CCC(N)CC4)nc3-c3ccc(C#N)cc3)c(F)cc21` [Example 125, 4-[2-(4-aminopiperidin-1-yl)-5-(6-fluoro-1-methylbenzimidazol-5-yl)pyrimidin-4-yl]benzonitrile], the IC50 in assay [1] is under 0.1 µM; in assay [2] (Homo sapiens, 96 h) it was under 0.1 µM.
Regarding `Cn1cnc2cc(-c3cnc(N4CCC(N)CC4)nc3-c3ccc(C#N)cc3)c(F)c(F)c21` [Example 126, 4-[2-(4-aminopiperidin-1-yl)-5-(6,7-difluoro-1-methylbenzimidazol-5-yl)pyrimidin-4-yl]benzonitrile], the concentration for half-maximal inhibition (IC50) in assay [1] was under 0.1 µM; in assay [2] (Homo sapiens, 96 h), under 0.1 µM.
For the molecule `Cn1cc2cc(-c3cnc(N4CCC(N)CC4)nc3-c3ccc(C#N)cc3)ccc2n1` [Example 128, 4-[2-(4-aminopiperidin-1-yl)-5-(2-methylindazol-5-yl)pyrimidin-4-yl]benzonitrile], the IC50 is under 0.1 µM in assay [1] and under 0.1 µM in assay [2] (Homo sapiens, 96 h).
As for `Cn1cc2ccc(-c3cnc(N4CCC(N)CC4)nc3-c3ccc(C#N)cc3)cc2n1` [Example 129, 4-[2-(4-aminopiperidin-1-yl)-5-(2-methylindazol-6-yl)pyrimidin-4-yl]benzonitrile], the IC50 in assay [1] was under 0.1 µM; in assay [2] (Homo sapiens, 96 h), under 0.1 µM.
For `Cn1cnc2cc(-c3cnc(N4CCC5CNCC5CC4)nc3-c3ccc(C#N)cc3)c(F)c(F)c21` (stereo not shown) [Example 130], the IC50 in assay [1] is under 0.1 µM; in assay [2] (Homo sapiens, 96 h), under 0.1 µM.
For the molecule `N#Cc1ccc(-c2nc(N3CCC(N)CC3)ncc2-c2ccc(OCC(F)(F)F)nc2)cc1` [Example 131, 4-[2-(4-aminopiperidin-1-yl)-5-[6-(2,2,2-trifluoroethoxy)pyridin-3-yl]pyrimidin-4-yl]benzonitrile], the IC50 was under 0.1 µM in assay [1] and 0.1 to 1 µM in assay [2] (Homo sapiens, 96 h).
As to `Cn1cnc2cc(-c3cnc(N4CCC(N)CC4)nc3-c3ccc(C#N)c(F)c3)c(F)c(F)c21` [Example 132, 4-[2-(4-aminopiperidin-1-yl)-5-(6,7-difluoro-1-methylbenzimidazol-5-yl)pyrimidin-4-yl]-2-fluorobenzonitrile], the concentration for half-maximal inhibition (IC50) in assay [1] is under 0.1 µM; in assay [2] (Homo sapiens, 96 h) it was under 0.1 µM.
For `Cn1cnc2cc(-c3cnc(N4CCC(N)CC4)nc3-c3ccc(C#N)c(F)c3)c(F)cc21` [Example 133, 4-[2-(4-aminopiperidin-1-yl)-5-(6-fluoro-1-methylbenzimidazol-5-yl)pyrimidin-4-yl]-2-fluorobenzonitrile], the IC50 was under 0.1 µM in assay [1] and under 0.1 µM in assay [2] (Homo sapiens, 96 h).
On to `CN(C)c1ncc(-c2cnc(N3CCC(N)CC3)nc2-c2ccc(C#N)c(F)c2)cn1` [Example 134, 4-[2-(4-aminopiperidin-1-yl)-5-[2-(dimethylamino)pyrimidin-5-yl]pyrimidin-4-yl]-2-fluorobenzonitrile], for which the IC50 is under 0.1 µM in assay [1] and under 0.1 µM in assay [2] (Homo sapiens, 96 h).
